{
  "source": "paper PMC9063844",
  "about": "“Synergic action of an inserted carbohydrate-binding module in a glycoside hydrolase family 5 endoglucanase” (Acta Crystallographica. Section D, Structural Biology, 2022)",
  "key": {"[1]": {"biological_target": "T1, ΔCBM (Meiothermus taiwanensis, UniProt A0A399DY85, DEL251-380)", "T1 construct": "gene celH; CBM-deleted MtGlu5, residues 1-235 joined to 366-455 (catalytic domain only); pET-21, C-terminal His6; E. coli BL21(DE3)", "T1 sequence (A0A399DY85 entry or part of it DEL251-380)": "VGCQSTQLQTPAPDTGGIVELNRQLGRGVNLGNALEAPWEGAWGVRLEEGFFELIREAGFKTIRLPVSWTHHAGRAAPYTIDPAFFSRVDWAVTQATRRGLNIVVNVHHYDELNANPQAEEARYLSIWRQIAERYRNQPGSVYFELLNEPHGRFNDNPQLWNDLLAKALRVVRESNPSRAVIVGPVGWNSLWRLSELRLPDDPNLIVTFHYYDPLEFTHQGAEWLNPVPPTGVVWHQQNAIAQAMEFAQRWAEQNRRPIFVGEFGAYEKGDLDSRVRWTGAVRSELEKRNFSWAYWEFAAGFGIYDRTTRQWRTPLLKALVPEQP", "test": "X-ray crystal structure (crystal soaked with […] cellobiose)", "assay_type": "binding", "conditions": "1.53 Å; between Trp43 and Trp224"}, "[2]": {"biological_target": "T2, MtGlu5 (Meiothermus taiwanensis, UniProt A0A399DY85)", "T2 construct": "gene celH; residues 15-470, signal peptide removed, catalytic domain with inserted CBM29-like domain (236-365); pET-21, C-terminal His6; E. coli BL21(DE3)", "T2 sequence (A0A399DY85 entry or part of it)": "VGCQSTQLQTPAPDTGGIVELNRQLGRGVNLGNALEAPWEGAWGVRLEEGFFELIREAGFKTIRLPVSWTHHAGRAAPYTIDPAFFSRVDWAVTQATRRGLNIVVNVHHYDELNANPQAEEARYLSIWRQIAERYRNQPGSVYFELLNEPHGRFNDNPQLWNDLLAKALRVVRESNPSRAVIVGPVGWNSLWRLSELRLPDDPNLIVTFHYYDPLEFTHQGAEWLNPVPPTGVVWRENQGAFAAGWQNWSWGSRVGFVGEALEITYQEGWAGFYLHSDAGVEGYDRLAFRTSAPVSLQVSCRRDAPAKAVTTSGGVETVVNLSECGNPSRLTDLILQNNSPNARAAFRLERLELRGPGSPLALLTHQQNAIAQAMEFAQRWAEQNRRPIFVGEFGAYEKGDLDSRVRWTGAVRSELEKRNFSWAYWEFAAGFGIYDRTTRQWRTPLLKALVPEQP", "test": "hydrolysis, specific activity (reducing sugar, DNS)", "assay_type": "biochemical", "conditions": "optimum pH 5.0, 60 °C"}, "[3]": {"biological_target": "T1, ΔCBM", "test": "turnover in the soaked crystal (glucose found instead of cellopentaose)", "assay_type": "binding", "conditions": "crystal soak, 10 mM cellopentaose"}, "[4]": {"biological_target": "T1, ΔCBM", "test": "X-ray crystal structure (crystal soaked with cellopentaose)", "assay_type": "binding", "conditions": "1.53 Å; between Trp43 and Trp224; glucose from cellopentaose cleavage"}, "[5]": {"biological_target": "T2, MtGlu5", "test": "X-ray crystal structure (co-crystallised with CMC)", "assay_type": "binding", "conditions": "2.99 Å; glucose from CMC hydrolysis, stacked between Trp43 and Trp224 in the catalytic pocket (-2 or -3 subsite)"}},
  "data": [
    {"smiles": "OC[C@H]1O[C@@H](O[C@H]2[C@H](O)[C@@H](O)C(O)O[C@@H]2CO)[C@H](O)[C@@H](O)[C@@H]1O", "note": "(some centres unmarked) [cellobiose]", "values": [
      {"measurement": "X-ray crystal structure (crystal soaked with 10 mM cellobiose)", "setting": "[1]", "value": "ΔCBM crystals in complex with glucose and cellobiose were obtained by soaking with cellopentaose and cellobiose"}
    ]},
    {"smiles": "OC[C@H]1O[C@@H](O[C@H]2[C@H](O)[C@@H](O)[C@H](O[C@H]3[C@H](O)[C@@H](O)[C@H](O[C@H]4[C@H](O)[C@@H](O)[C@H](O[C@H]5[C@H](O)[C@@H](O)C(O)O[C@@H]5CO)O[C@@H]4CO)O[C@@H]3CO)O[C@@H]2CO)[C@H](O)[C@@H](O)[C@@H]1O", "note": "(some centres unmarked) [cellopentaose]", "values": [
      {"measurement": "hydrolysis, specific activity (reducing sugar, DNS)", "setting": "[2]", "value": "specific activities of MtGlu5 towards CMC, β-glucan (barley) and cellopentaose"},
      {"measurement": "turnover in the soaked crystal (glucose found instead of cellopentaose)", "setting": "[3]", "value": "presence of bound glucose rather than cellopentaose in the former crystal"}
    ]},
    {"smiles": "OC[C@H]1OC(O)[C@H](O)[C@@H](O)[C@@H]1O", "note": "(some centres unmarked) [glucose]", "values": [
      {"measurement": "X-ray crystal structure (crystal soaked with cellopentaose)", "setting": "[4]", "value": "ΔCBM crystals in complex with glucose and cellobiose were obtained by soaking with cellopentaose and cellobiose"},
      {"measurement": "X-ray crystal structure (co-crystallised with CMC)", "setting": "[5]", "value": "Bound glucose was observed in the MtGlu5 crystal"}
    ]}
  ]
}
